Laboratory results: patent US7671212B2, “Isothiazole dioxides as CXC- and CC-chemokine receptor ligands” (Schering Corporation, priority 2003, dated 2010)
Values joined by “and” are separate entries in the source; they are usually repeats but may differ in a detail not shown here. Identical values can stand only once.

Assays:
hCXCR2 = target: T1, hCXCR2 (Homo sapiens, UniProt P25025); test: CXCR2 SPA assay ([125I]-IL-8 binding, incl. alternative 50 μl and 200 μl protocols); settings: hCXCR2-CHO membranes
T1 construct: purchased Biosignal / Biosignal Packard; host or cells: CHO
T1 sequence (P25025 1-360): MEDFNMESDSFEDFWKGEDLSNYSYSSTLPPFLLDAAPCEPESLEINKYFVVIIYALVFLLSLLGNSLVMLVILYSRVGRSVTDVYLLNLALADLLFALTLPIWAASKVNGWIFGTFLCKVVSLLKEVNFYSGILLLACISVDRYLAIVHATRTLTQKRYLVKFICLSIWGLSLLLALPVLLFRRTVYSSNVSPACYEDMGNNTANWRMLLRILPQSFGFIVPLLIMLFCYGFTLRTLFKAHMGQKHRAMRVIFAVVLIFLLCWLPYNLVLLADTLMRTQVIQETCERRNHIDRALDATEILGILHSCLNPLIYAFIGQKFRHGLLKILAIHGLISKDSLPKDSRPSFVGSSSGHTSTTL
Description: For each well of a 96 well plate, a reaction mixture of 4 μg hCXCR2-CHO overexpressing membranes (Biosignal) and 200 μg/well WGA-SPA beads (Amersham) in 100 μl was prepared in CXCR2 assay buffer (25 mM HEPES, pH 7.4, 2 mM CaCl2, 1 mM MgCl2). A 0.4 nM stock of ligand, [125I]-IL-8 (NEN), was prepared in the CXCR2 assay buffer. 20× stock solutions of test compounds were prepared in DMSO (Sigma). A 6× stock solution of GRO-α (R&D) was prepared in CXCR2 assay buffer. The above solutions were added to a 96-well assay plate (PerkinElmer or Corning) as follows: 10 μl test compound or DMSO, 40 ul CXCR2 assay buffer or GRO-α stock, 100 μl of reaction mixture, 50 μl of ligand stock (Final [Ligand]=0.1 nM). When 40× stock solutions of test compounds in DMSO were prepared, then the above protocol was used except instead 5 μl test compound or DMSO and 45 μl CXCR2 assay buffer were used.
Alternative CXCR2 SPA Assay
Protocol Using the CXCR2 50 μl Assay
For each 50 μl reaction, a working stock of 0.031 μg/μl hCXCR2-CHO over-expressing membranes with a specific activity of 0.4 pmol/mg (Biosignal Packard) and 2.5 μg/μl WGA-SPA beads (Perkin Elmer Life Sciences) was prepared in CXCR2 assay buffer (25 mM HEPES, pH 7.4, 2.0 mM CaCl2, 1 mM MgCl2) (Sigma). This mixture was incubated on ice for 5 minutes. A 0.50 nM stock of ligand, [^125I]-IL-8 (Perkin Elmer Life Sciences), was prepared in the CXCR2 assay buffer. Test compounds were first serially diluted by half-logs in DMSO (Sigma) and then diluted 13.3-fold in CXCR2 assay buffer. The above solutions were added to a Corning NBS (non-binding surface) 96-well assay plate as follows: 20 μl test compound or 7.5% DMSO (final [DMSO]=3%), 20 μl of membranes and SPA bead mixture (final [membrane]=0.625 μg/reaction; final [SPA bead]=50 μg/reaction), 10 μl of ligand stock (final [^125I-IL-8]=0.10 nM). The assay plates were incubated for 2 hours before cpm/well were determined in a Microbeta Trilux counter (Perkin Elmer Life Sciences). IC50 values were quantified using nonlinear regression analysis in GraphPad Prism.
Protocol Using the CXCR2 200 μl Assay
For each 200 μl reaction, a working stock of 0.02 μg/μl hCXCR2-CHO over-expressing membranes with a specific activity of 0.6 pmol/mg (Biosignal Packard) and 2 μg/μl WGA-SPA beads (Perkin Elmer Life Sciences) was prepared in CXCR2 assay buffer (25 mM HEPES, pH 7.4, 2.0 mM CaCl2, 1 mM MgCl2) (Sigma). This mixture was incubated on ice for 5 minutes. A 0.40 nM stock of ligand, [^125I]-IL-8 (Perkin Elmer Life Sciences), was prepared in the CXCR2 assay buffer. Test compounds were first serially diluted by half-logs in DMSO (Sigma) and then diluted […] in CXCR2 assay buffer. The above solutions were added to a Corning NBS (non-binding surface) 96-well assay plate as follows: 50 μl test compound or 10% DMSO (final [DMSO]=2.5%), 100 μl of membranes and SPA bead mixture (final [membrane]=2 μg/reaction; final [SPA bead]=200 μg/reaction), 50 μl of ligand stock (final [^125I-IL-8]=0.10 nM). The assay plates were incubated for 2 hours before cpm/well were determined in a Microbeta Trilux counter (Perkin Elmer Life Sciences). IC50 values were quantified using nonlinear regression analysis in GraphPad Prism.

hCXCR1 = target: T2, hCXCR1 (Homo sapiens, UniProt P25024); test: CXCR1 SPA assay ([125I]-IL-8 binding, incl. alternative Biosignal Packard and Euroscreen membrane protocols); settings: hCXCR1-CHO membranes
T2 construct: purchased Biosignal / Biosignal Packard; Euroscreen (alternative protocol); host or cells: CHO
T2 sequence (P25024 1-350): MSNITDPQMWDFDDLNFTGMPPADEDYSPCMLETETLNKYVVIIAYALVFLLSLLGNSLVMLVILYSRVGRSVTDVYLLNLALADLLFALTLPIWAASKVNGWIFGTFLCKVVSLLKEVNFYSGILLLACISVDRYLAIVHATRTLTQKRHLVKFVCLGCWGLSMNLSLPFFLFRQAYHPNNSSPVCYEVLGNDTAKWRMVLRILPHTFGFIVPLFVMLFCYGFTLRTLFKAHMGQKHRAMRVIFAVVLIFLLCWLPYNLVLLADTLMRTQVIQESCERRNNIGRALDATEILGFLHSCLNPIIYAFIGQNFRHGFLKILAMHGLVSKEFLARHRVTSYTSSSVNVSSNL
Description: For each well of a 96 well plate, a reaction mixture of 10 μg hCXCR1-CHO overexpressing membranes (Biosignal) and 200 μg/well WGA-SPA beads (Amersham) in 100 μl was prepared in CXCR1 assay buffer (25 mM HEPES, pH 7.8, 2 mM CaCl2, 1 mM MgCl2, 125 mM NaCl, 0.1% BSA) (Sigma). A 0.4 nM stock of ligand, [125I]-IL-8 (NEN) was prepared in the CXCR1 assay buffer. 20× stock solutions of test compounds were prepared in DMSO (Sigma). A 6× stock solution of IL-8 (R&D) was prepared in CXCR2 assay buffer. The above solutions were added to a 96-well assay plate (PerkinElmer) as follows: 10 μl test compound or DMSO, 40 μl CXCR1 assay buffer or IL-8 stock, 100 μl of reaction mixture, 50 μl of ligand stock (Final [Ligand]=0.1 nM).
Alternative CXCR1 SPA Assay
Protocol Using CXCR1-Expressing Membranes from Biosignal Packard
For each 50 μl reaction, a working stock of 0.25 μg/μl hCXCR1-CHO over-expressing membranes with a specific activity of 0.05 pmol/mg (Biosignal Packard) and 25 μg/μl WGA-SPA beads (Perkin Elmer Life Sciences) was prepared in CXCR1 assay buffer (25 mM HEPES, pH 7.8, 0.1 mM CaCl2, 1 mM MgCl2, 100 mM NaCl) (Sigma). […] The assay plates were incubated for 4 hours before cpm/well were determined in a Microbeta Trilux counter (Perkin Elmer Life Sciences). IC50 values were quantified using nonlinear regression analysis in GraphPad Prism. […]

CCR7 = target: T3, CCR7 (Homo sapiens, UniProt P32248); test: CCR7 [35S]GTPγS exchange assay (SPA, Ba/F3-CCR7 membranes, MIP-3β); assay type: biochemical; settings: 2 nM MIP-3β
T3 construct: expressed in transfected cells; host or cells: Ba/F3
T3 sequence (P32248 25-378): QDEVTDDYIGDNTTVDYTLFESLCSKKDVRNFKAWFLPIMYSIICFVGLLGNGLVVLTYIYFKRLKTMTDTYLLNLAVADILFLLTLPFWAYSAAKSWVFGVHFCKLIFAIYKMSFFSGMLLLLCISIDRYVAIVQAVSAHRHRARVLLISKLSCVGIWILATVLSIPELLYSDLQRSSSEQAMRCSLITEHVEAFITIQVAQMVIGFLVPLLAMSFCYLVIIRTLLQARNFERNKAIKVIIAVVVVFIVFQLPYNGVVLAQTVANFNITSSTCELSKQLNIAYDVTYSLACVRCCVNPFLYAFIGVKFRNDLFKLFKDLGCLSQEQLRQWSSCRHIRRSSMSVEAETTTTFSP
Description: CCR7 Membrane Preparation.
Ba/F3-CCR7 membranes were prepared as previously described (Hipkin et al., J. Biol. Chem., 272, 1997, 13869-76). Cells were pelleted by centrifugation, incubated in homogenization buffer (10 mM Tris-HCl, 5 mM EDTA, 3 mM EGTA, pH 7.6) and 1 μM PMSF for 30 min. on ice. The cells were then lysed with a Dounce homogenizer using stirrer type RZR3 polytron homogenizer (Caframo, Wiarton, Ont.) with 12 strokes at 900 RPM. The intact cells and nuclei were removed by centrifugation at 500×g for 5 min. The cell membranes in the supernatant were then pelleted by centrifugation at 100,000×g for 30 min. The membranes were then resuspended in glygly buffer (20 mM glycylglycine, 1 mM MgCl2, 250 mM sucrose, pH 7.2), aliquoted, quick frozen and stored at −80° C.
CCR7 [^35S]GTPγS Exchange Assay.
The exchange of guanosine 5′-[γ-^35S]triphospate ([^35S]GTPγS, triethylammonium salt; specific activity=1250 Ci/mmol; NEN Boston, Mass.) was measured using a scintillation proximity assay (SPA) as previously described (Cox, et. al., Mol. Pharmacol., 59, 2001, 707-15). […] Membrane-bound [^35S]GTPγS was measured using a 1450 Microbeta Trilux counter (Wallac, Gaithersburg, Md.).

Ki (hCXCR2) | Ki (hCXCR1) [nM] | EC50 (CCR7) [nM] | SMILES
7.6 to 51 nM | – | – | CCOC(=O)C1=C(Nc2cccc(C(=O)N(C)C)c2O)C(N[C@@H](c2cc(C)c(C)o2)C(C)C)=NS1(=O)=O [Example 5]
19 nM and 7.6 to 51 nM | 345 | – | Cc1cc([C@H](NC2=NS(=O)(=O)C=C2Nc2cccc(C(=O)N(C)C)c2O)C(C)C)oc1C [Example 6]
– | – | 9500 | CCOC(=O)C1=C(Nc2cccc(C(=O)N(C)C)c2O)C(N[C@H](CC)c2cc(C(C)C)co2)=NS1(=O)=O [Example 162]

The remaining lines, values behind:

SMILES | Ki (hCXCR2) | Ki (hCXCR1) [nM] | EC50 (CCR7) [nM]
CCOC(=O)C1=C(Nc2cccc(C(=O)N(C)C)c2O)C(N[C@H](CC)c2ccc(C)o2)=NS1(=O)=O [Example 1] | 7.6 to 51 nM | – | –
CC[C@@H](NC1=NS(=O)(=O)C=C1Nc1cccc(C(=O)N(C)C)c1O)c1ccc(C)o1 [Example 2] | 7.6 nM and 7.6 to 51 nM | – | –
CCOC(=O)C1=C(N[C@H](CC)c2ccccc2)C(Nc2cccc(C(=O)N(C)C)c2O)=NS1(=O)=O [Example 3] | 7.6 to 51 nM | – | –
CC[C@@H](NC1=CS(=O)(=O)N=C1Nc1cccc(C(=O)N(C)C)c1O)c1ccccc1 [Example 4] | 7.6 to 51 nM | – | –
